Tests used:
[1] = tested on: MDA-MB-231 cells; experiment: MTT cytotoxicity assay, MDA-MB-231; format: cell-based; details: Homo sapiens, 48 h, mean ± SEM of three
Description: (§1) MDA-231 triple-negative breast cancer cells, MCF-7 breast cancer cells, and A549 adenocarcinomic human alveolar basal epithelial cells were maintained in Roswell Park Memorial Institute media (RPMI 1640, Sigma-Aldrich, St. Louis, MO, USA) supplemented with 10% foetal bovine serum and 1% penicillin/streptomycin. HDF human dermal normal fibroblast cells were cultured in Dulbecco’s Modified Eagle Medium (DMEM, Sigma-Aldrich, Eppelheim, Germany). MCF-7 breast cancer cell line was obtained from Cell Lines Service (CLS; Eppelheim, Germany). MDA-MB-231 breast cancer cell line and A549 cancer cells were obtained from the European Collection of Authenticated Cell Cultures (ECACC; Gillingham UK). Cell lines were maintained at 37 °C in a humidified incubator with 5% CO2.
(§2) The antiproliferative activity of compounds U1–6 was assessed using the 3-[4,5-dimethylthiazol-2-yl]-2,5-diphenyl tetrazolium bromide (MTT) assay, as previously described. Cancer cell lines were seeded in 96-well flatbottom plates at a density of 10^4 cells/well for 24 h. The cells were subsequently treated with U1–6 compounds at a screening concentration of 50 µM and incubated at 37 °C for 48 h in a humidified incubator containing 5% CO2. […] DMSO was used as a negative vehicle control (1% concentration). The culture media were then removed and incubated for 2 h with fresh 200 µL culture media containing 5 mg/mL MTT. After removing the culture media and dissolving the produced formazan crystals in 100 µL DMSO, they were incubated for another 30 min at 37 °C. The produced colour was measured at 570 nm using a microplate reader (Thermo-Scientific, Vantaa, Finland). The GraphPad Prism version 9.1 software was used to generate plots of absorbance versus the compound’s concentration. Three independent repeat experiments were performed for each concentration to ensure reproducibility. IC50 values were obtained from nonlinear regression plots of absorbance versus the log concentration of the tested compounds using the GraphPad Prism software version 5.0 (San Diego, CA, USA).

[2] = tested on: MCF-7 cells; experiment: MTT cytotoxicity assay, MCF-7; format: cell-based; details: Homo sapiens, MCF7, 48 h, mean ± SEM of three
Description: as §1, §2

[3] = tested on: A549 cells; experiment: MTT cytotoxicity assay, A549; format: cell-based; details: Homo sapiens, 48 h, mean ± SEM of three
Description: as §1, §2

[4] = target: T1, Bcl-2 protein (Homo sapiens, UniProt P10415); experiment: Bim ELISA binding assay (Bcl-2–Bim binding); details: mean ± SEM of three, read-out: IC50 using ELISA against Bcl-2
T1 construct: purchased Thermo-Scientific BMS244-3
Description: A Bim-binding assay (Thermo-Scientific, Catalogue No # BMS244-3, Vienna, Austria) was performed according to previously published data. PBS solution containing 0.05% Tween-20 was used to wash a streptavidin-coated 96-well plate. For immobilisation, biotinylated Bim peptide (residues 81–106) was diluted in SuperBlock blocking solution and applied to each well. After incubation, the plate was washed with 0.5% BSA in PBS with Tween-20 solution. […] After another wash, each well received anti-His antibody with horseradish peroxidase enzyme. Following incubation and washing, O-phenylenediamine and hydrogen peroxide solution were added for colour production. A plate reader (Thermo-Scientific, Vantaa, Finland) was used to measure the optical density at 450 nm. The reduction in Bim affinity was measured using a nonlinear regression curve (GraphPad Prism. Version 5.0), which was also utilized to generate the IC50 value of Bcl-2 inhibition.

[5] = tested on: HDF human dermal normal fibroblast cells; experiment: Safety profile on HDF normal fibroblasts; format: cell-based; details: 50 µM, 24 hrs
Description: as §1
as §2, with “h.” for “h. The cells were subsequently treated with U1–6 compounds at a screening concentration of 50 µM and incubated at 37 °C for 48 h in a humidified incubator containing 5% CO2.”

[6] = tested on: MCF-7 cells; experiment: Annexin-V-FITC apoptosis assay; format: cell-based, human; details: MCF-7, 24 h
Description: The Annexin-V-FITC apoptosis detection kit (Catalog # k101-25, Biovision, Mountain View, USA) was used for the apoptosis experiment according to previously published data. MCF-7 cells were treated with U2 compound for 24 h. The negative control was 0.1% DMSO. The cells were collected via centrifugation and resuspended in 500 µL of 1X Binding Buffer. Treated and control cells were stained with 5 µL Annexin V-FITC and 5 µL propidium iodide (PI […]) and then incubated at room temperature for 5 min in the dark. Fluorescence-activated cell sorting (FACS) was quantified via flow cytometry. Flow cytometry (excision at 488 nm; emission at 530 nm) was used to examine Annexin V-FITC binding and PI staining using the FITC signal detector and a phycoerythrin emission signal detector [71].

[7] = tested on: MCF-7 cells; experiment: Cell cycle assay (PI flow cytometry); format: cell-based, human; details: MCF-7, 24 h, at IC50 concentration
Description: DMSO vehicle was used as a negative control (1% concentration). The cells were collected, centrifuged, and fixed in 70% ethanol on ice for 20 min. The fixed cells were incubated for 1 h at room temperature with staining solution ([…] propidium iodide PI, 0.05% Triton X-100, 0.1 mg/mL RNaseA). A Gallios flow cytometer (Beckman Coulter, Brea, CA, USA) was used to measure the cell cycle proportion.

T1 sequence (P10415 whole entry): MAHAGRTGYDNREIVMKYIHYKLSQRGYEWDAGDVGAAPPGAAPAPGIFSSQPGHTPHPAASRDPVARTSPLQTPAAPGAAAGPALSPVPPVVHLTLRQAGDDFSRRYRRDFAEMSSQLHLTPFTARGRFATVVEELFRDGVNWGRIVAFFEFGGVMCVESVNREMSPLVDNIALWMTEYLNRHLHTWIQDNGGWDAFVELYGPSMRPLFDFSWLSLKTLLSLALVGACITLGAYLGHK

Row | Compound | IC50 [4] [µM] | melting point [°C] | IC50 [1] [µM] | IC50 [2] [µM] | IC50 [3] [µM] | Inhibitory activity against HDF cells compared with the negative control [5] | Increase in early apoptosis compared with control untreated cells [6] [fold] | Increase in late apoptosis compared with control untreated cells [6] [fold] | Cell cycle effect [7]
1 | Cc1cc2c(C(C)C)c(O)c(O)c(C=O)c2c(O)c1-c1c(C)cc2c(C(C)C)c(O)c(O)c(C=O)c2c1O [Gossypol, reference compound] | – | – | 5.5 ± 0.35 | 4.43 ± 0.54 | 3.45 ± 0.4 | – | – | – | –
2 | Cc1ccc(-n2c(SCC(=O)Nc3ccc(NC(=O)CN4CCOCC4)cc3)nnc2-c2c[nH]c3ccccc23)cc1 [Compound U3, 2-(5-(1H-Indol-3-yl)-4-methylphenyl-4H-1,2,4-triazol-3-ylthio)-N-(4-(2-morpholinoacetamido)phenyl)acetamide] | 11.1 ± 0.07 | 250 to 252 | 4.07 ± 0.35 | 1.17 ± 0.1 | 2.98 ± 0.19 | no significant change | – | – | –
3 | COc1ccc(-n2c(SCC(=O)Nc3ccc(NC(=O)CN4CCOCC4)cc3)nnc2-c2c[nH]c3ccccc23)cc1 [Compound U2, 2-(5-(1H-Indol-3-yl)-4-(4-methoxyphenyl)-4H-1,2,4-triazol-3-ylthio)-N-(4-(2-morpholinoacetamido)phenyl)acetamide] | 1.2 ± 0.02 | 173 to 175 | 5.22 ± 0.55 | 0.83 ± 0.11 | 0.73 ± 0.07 | limited toxicity | 43 | 111 | cell cycle arrest at the G1/S phase
4 | O=C(CSc1nnc(-c2c[nH]c3ccccc23)n1-c1ccc(F)cc1)Nc1ccc(NC(=O)CN2CCOCC2)cc1 [Compound U1, 2-(4-(4-Fluorophenyl)-5-(1H-indol-3-yl)-4H-1,2,4-triazol-3-ylthio)-N-(4-(2 morpholinoacetamido)phenyl)acetamide] | – | 208 to 210 | 20.7 ± 0.85 | 5.05 ± 0.8 | 13.3 ± 0.58 | no significant change | – | – | –

Second part, led by results:

Row | IC50 [4] [µM] | melting point [°C] | Compound | IC50 [1] [µM] | IC50 [2] [µM] | IC50 [3] [µM] | Inhibitory activity against HDF cells compared with the negative control [5] | Increase in early apoptosis compared with control untreated cells [6] [fold] | Increase in late apoptosis compared with control untreated cells [6] [fold] | Cell cycle effect [7]
5 | – | 220 to 222 | O=C(CSc1nnc(-c2c[nH]c3ccccc23)n1-c1cccc(Cl)c1)Nc1ccc(NC(=O)CN2CCOCC2)cc1 [Compound U4, 2-(4-(3-Chlorophenyl)-5-(1H-indol-3-yl)-4H-1,2,4-triazol-3-ylthio)-N-(4-(2-morpholinoacetamido)phenyl) acetamide] | 28.4 ± 1.79 | 11 ± 1.2 | 16.1 ± 1.4 | no significant change | – | – | –
6 | – | 208 to 210 | O=C(CSc1nnc(-c2c[nH]c3ccccc23)n1-c1ccc(Cl)cc1)Nc1ccc(NC(=O)CN2CCOCC2)cc1 [Compound U5, 2-(4-(4-Chlorophenyl)-5-(1H-indol-3-yl)-4H-1,2,4-triazol-3-ylthio)-N-(4-(2-morpholinoacetamido)phenyl)acetamide] | 45.1 ± 1.15 | 34.4 ± 2.2 | 47.8 ± 3.7 | no significant change | – | – | –
7 | – | 218 to 220 | O=C(CSc1nnc(-c2c[nH]c3ccccc23)n1-c1ccc(Cl)c(Cl)c1)Nc1ccc(NC(=O)CN2CCOCC2)cc1 [Compound U6] | 79.4 ± 4.04 | 35.5 ± 2.14 | 66.5 ± 0.62 | limited toxicity | – | – | –
